According to EP0332946B1, “The dipeptide L-pyroglutamyl-L-cysteine, having a high anti-cataractogenic activity, and pharmaceutical compositions containing the same” (S.I.F.I. Società Industria Farmaceutica Italiana S.p.A., priority 1988, dated 1993):
Read-outs that look alike come from different tables or passages of the source. Non-standard residues stand in square brackets, D forms with d. Residues, ends and D or L forms follow the SMILES beside them. pGlu = O=C1CC[C@@H](C(=O)O)N1

Tests used:
male New-Zealand rabbits [1] = experiment: Toxicity (systemic tolerability) after intraperitoneal injection; assay type: in vivo
Description: The systemic tolerability of PGC has been studied also after acute administration by means of intraperitoneal injection.
10 rabbits have received the substance (400 mg/kg) injected intraperitoneally.
24 hours after the administration of the product, the following examination have been carried out on urine and blood: • blood cell (red and white) count • determination of glycemia and acotemia; • evaluation of SGOT and SGPT transaminases

male New-Zealand rabbits [2] = settings: rabbit, in vivo
[3] = test system: Female albino Sprague-Dowely rats; experiment: Cataract due to hypergalactosemic diet (in vivo experimental cataract model, slit lamp evaluation); settings: rats on 50% galactose diet, 20 days; PGC 10% in buffer, one drop twice a day into the conjunctive sac
Description: Female albino Sprague-Dowely rats having an average weight of 70 g have been used. Said rats have been fed a diet consisting of 50% galactose and the remaining 50% standard rat food during a 20 days period. The animals have been divided in two groups: the first animal group has been administered PGC (10% in buffer) by instilling one drop twice a day into the conjuctive sac, both sides; the second group, consisting of control animals, has been administered buffer only.
The conditions of the various eye sections : conjunctiva, cornea, interior chamber, lens and vitreous humor have been evaluated at the slit lamp. The examination has been carried out before the beginning of the treatment and then on the 5th, 10th, 15th and 20th day.

rat lenses = experiment: Experimental model of in vitro cataract (isolated lenses incubated in high-glucose culture broth); assay type: cell-based, rats; settings: lenses treated with PGC 1M; 55.5 mM glucose
Description: Male albino Wistar rats having an average weight of 180 g have been used. After decapitation, both eye bulbs have been enucleated and the lenses have been removed from the back. The isolated lenses have been incubated at 37°C during 5 days in culture broth 199 containing 15% of foetal bovine serum (Laboratorio Gebco) and a 55.5 mM concentration of glucose. PGC has been added at a 1M concentration into the culture broth of only some lenses. The observations have been carried out at the 3rd and 5th day with the use of a stereo microscope and a Nikon camera with annular flash.
It can be observed that in the control lenses the opaqueness development begins after only 72 hours of incubation and is complete after 120 hours. In the lenses treated with PGC low levels of opaqueness can not be observed before 120 hours of treatment.

Male albino Wistar rats = experiment: Cataract from tryptophan deficiency (in vivo experimental cataract model, slit lamp evaluation); settings: rats on tryptophan-deficient diet, 30 days
Description: Said rats have been fed a synthetic diet devoid of tryptophan for a 30 days period and divided in three groups: the first animal group has been administered PGC subcutaneously at a dosage of 1 mg/kg in buffer solution, the second group has been administered a 10 mg/kg doses, whilst the animals of the third group have been injected only buffer solution.
The conditions of the various eye sections : conjunctiva, cornea, interior chamber, lens and vitreous humor have been evaluated at the slit lamp.
Especially the localisation and the degree of lens opaqueness have been scrutinized and documented by means of photographs.
It was possible to observe opaqueness predominantly at the level at the posterior capsule and there was also evidence of an initial sclerosis of the nucleus. No further alterations either at the level of the anterior segment or of the posterior segment have been observed.

Structure (SMILES): O=C1CC[C@@H](C(=O)N[C@@H](CS)C(=O)O)N1 [PGC, L-pyroglutamyl-L-cysteine] ([pGlu]-Cys-OH)
- changes of the hematological or hematochemical constants or of the urine composition (male New-Zealand rabbits [1]; PGC 400 mg/kg intraperitoneally, 24 hours after administration, urine and blood examination): not shown any changes
- growth modification relative to control animals (male New-Zealand rabbits [1]; PGC intraperitoneally): No growth modification
- BODY WEIGHT INCREASE (KG) ON DAY 0 (male New-Zealand rabbits [1]; PGC intraperitoneally (400 mg/kg), day 0 (baseline), average ± SD, n=10): 1.45 ± 0.05 kg
- BODY WEIGHT INCREASE (KG) ON DAY 20 (male New-Zealand rabbits [1]; PGC intraperitoneally (400 mg/kg), day 20, average ± SD, n=10): 2.25 ± 0.08 kg
- BODY WEIGHT INCREASE (KG) ON DAY 0 (male New-Zealand rabbits [2]): 1.60 ± 0.08 kg
- BODY WEIGHT INCREASE (KG) ON DAY 20 (male New-Zealand rabbits [2]): 2.34 ± 0.12 kg
- changes of the hematological or hematochemical constants or of the urine composition (male New-Zealand rabbits [2]): not shown any changes
- growth modification relative to control animals (male New-Zealand rabbits [2]): No growth modification
- effect on the formation of lens opaqueness [3]: protective effect
- percent of opaque lenses as a whole in the treated animals relative to the controls [3]: 60%
- time before low levels of opaqueness can be observed (rat lenses): ≥ 120 h
- lens opaqueness (Male albino Wistar rats; PGC 1 mg/kg subcutaneously): perfectly transparent
- lens opaqueness (Male albino Wistar rats; PGC 10 mg/kg subcutaneously): perfectly transparent
